Data taken from PubChem BioAssay (NCI).
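Five concentrations, 48 hours, 96-well plates. TGI is the concentration that stops growth completely.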

How the values were obtained:
Assay in all cases: DTP human tumour cell line panel, 48 h
[1] = tested on: DMS 273 small cell lung
[2] = tested on: NCI-H460 lung
[3] = tested on: SNB-75 CNS
[4] = tested on: SW-620 colon
[5] = tested on: TK-10 renal
[6] = tested on: SF-539 CNS
[7] = tested on: OVCAR-4 ovarian
[8] = tested on: U251 CNS
[9] = tested on: LXFL 529 NSCLC
[10] = tested on: M19-MEL melanoma
[11] = tested on: OVCAR-5 ovarian
[12] = tested on: 786-0 renal
[13] = tested on: DLD-1 colon
[14] = tested on: RXF 393 renal
[15] = tested on: HT29 colon
[16] = tested on: MOLT-4 leukemia
[17] = tested on: UO-31 renal
[18] = tested on: RPMI-8226 leukemia
[19] = tested on: M14 melanoma
[20] = tested on: SK-MEL-2 melanoma
[21] = tested on: KM20L2 colon
[22] = tested on: A549 NSCLC
[23] = tested on: ACHN renal
[24] = tested on: HOP-92 NSCLC
[25] = tested on: CAKI-1 renal
[26] = tested on: K-562 leukemia
[27] = tested on: HCT-15 colon
[28] = tested on: A498 renal
[29] = tested on: SK-OV-3 ovarian
[30] = tested on: SK-MEL-5 melanoma
[31] = tested on: CCRF-CEM leukemia
[32] = tested on: MALME-3M melanoma
[33] = tested on: NCI-H522 lung
[34] = tested on: SNB-19 CNS
[35] = tested on: SK-MEL-28 melanoma
[36] = tested on: LOX IMVI melanoma
[37] = tested on: HL-60(TB) leukemia
[38] = tested on: NCI-H23 lung
[39] = tested on: OVCAR-8 ovarian
[40] = tested on: SF-268 CNS
[41] = tested on: EKVX NSCLC
[42] = tested on: HOP-18 NSCLC
[43] = tested on: UACC-62 melanoma
[44] = tested on: COLO 205 colon
[45] = tested on: SN12C renal
[46] = tested on: UACC-257 melanoma
[47] = tested on: IGROV1 ovarian
[48] = tested on: XF 498 CNS
[49] = tested on: OVCAR-3 ovarian
[50] = tested on: NCI-H226 lung
[51] = tested on: HOP-62 NSCLC
[52] = tested on: SR leukemia
[53] = tested on: SF-295 CNS
[54] = tested on: HCC-2998 colon
[55] = tested on: KM12 colon
[56] = tested on: HCT-116 colon
[57] = tested on: DMS 114 small cell lung
[58] = tested on: SNB-78 CNS

O=C(O)CNS(=O)(=O)c1ccc(NC(=O)c2ccccc2[N+](=O)[O-])cc1
TGI [1]: > 100 µM | TGI [2]: > 100 µM | TGI [3]: > 100 µM | TGI [4]: > 100 µM | TGI [5]: > 100 µM | TGI [6]: > 100 µM | TGI [7]: > 100 µM | TGI [8]: > 100 µM | TGI [9]: > 100 µM | TGI [10]: > 100 µM | TGI [11]: > 100 µM | TGI [12]: > 100 µM | TGI [13]: > 100 µM | TGI [14]: > 100 µM | TGI [15]: > 100 µM | TGI [16]: > 100 µM | TGI [17]: > 100 µM | TGI [18]: > 100 µM | TGI [19]: > 100 µM | TGI [20]: > 100 µM | TGI [21]: > 100 µM | TGI [22]: > 100 µM | TGI [23]: > 100 µM | TGI [24]: > 100 µM | TGI [25]: > 100 µM | TGI [26]: > 100 µM | TGI [27]: > 100 µM | TGI [28]: > 100 µM | TGI [29]: > 100 µM | TGI [30]: > 100 µM | TGI [31]: > 100 µM | TGI [32]: > 100 µM | TGI [33]: > 100 µM | TGI [34]: > 100 µM | TGI [35]: > 100 µM | TGI [36]: > 100 µM | TGI [37]: > 100 µM | TGI [38]: > 100 µM | TGI [39]: > 100 µM | TGI [40]: > 100 µM | TGI [41]: > 100 µM | TGI [42]: > 100 µM | TGI [43]: > 100 µM | TGI [44]: > 100 µM | TGI [45]: > 100 µM | TGI [46]: > 100 µM | TGI [47]: > 100 µM | TGI [48]: > 100 µM

C[C@@H](CC(O)C1OC1(C)C)[C@@H]1CC[C@]2(C)C3=CCC4C(C)(C)C(O)CC[C@]4(C)C3CCC12C (stereo not given in full)
TGI [1]: 29.2 µM | TGI [49]: > 100 µM | TGI [2]: > 100 µM | TGI [4]: > 100 µM | TGI [5]: 61.6 µM | TGI [6]: 54.4 µM | TGI [7]: > 100 µM | TGI [8]: > 100 µM | TGI [9]: 25.6 µM | TGI [10]: 49.9 µM | TGI [11]: > 100 µM | TGI [12]: 33.9 µM | TGI [50]: 45.3 µM | TGI [51]: > 100 µM | TGI [13]: > 100 µM | TGI [14]: 42.1 µM | TGI [15]: 24.8 µM | TGI [16]: > 100 µM | TGI [52]: > 100 µM | TGI [17]: 63.5 µM | TGI [18]: > 100 µM | TGI [19]: 42.1 µM | TGI [20]: 57.4 µM | TGI [21]: 48.6 µM | TGI [22]: 32.9 µM | TGI [23]: 88.8 µM | TGI [24]: 41.9 µM | TGI [26]: 73.1 µM | TGI [27]: > 100 µM | TGI [28]: 77.3 µM | TGI [29]: 58.9 µM | TGI [53]: 40.8 µM | TGI [31]: > 100 µM | TGI [32]: 31.1 µM | TGI [33]: 32.6 µM | TGI [34]: > 100 µM | TGI [35]: 41.9 µM | TGI [36]: > 100 µM | TGI [37]: 24.9 µM | TGI [38]: 75.4 µM | TGI [54]: > 100 µM | TGI [55]: > 100 µM | TGI [39]: > 100 µM | TGI [40]: 85.4 µM | TGI [41]: > 100 µM | TGI [42]: 80.7 µM | TGI [56]: 31.3 µM | TGI [43]: 33.6 µM | TGI [44]: 60.7 µM | TGI [45]: > 100 µM | TGI [46]: 41.2 µM | TGI [47]: > 100 µM | TGI [48]: 46.4 µM

CC(=O)OC(C[C@H](C)[C@@H]1CC[C@]2(C)C3=CCC4C(C)(C)C(=O)CC[C@]4(C)C3CCC12C)C1OC1(C)C (stereo not given in full)
TGI [1]: 77.6 µM | TGI [49]: > 100 µM | TGI [4]: > 100 µM | TGI [57]: > 100 µM | TGI [5]: 35.4 µM | TGI [6]: > 100 µM | TGI [7]: > 100 µM | TGI [8]: 66.8 µM | TGI [9]: > 100 µM | TGI [10]: > 100 µM | TGI [11]: 31.8 µM | TGI [12]: 43.2 µM | TGI [50]: 29 µM | TGI [51]: 42.7 µM | TGI [13]: > 100 µM | TGI [14]: 28.6 µM | TGI [15]: 42.7 µM | TGI [16]: > 100 µM | TGI [17]: 25.8 µM | TGI [18]: > 100 µM | TGI [19]: 55.4 µM | TGI [20]: > 100 µM | TGI [21]: > 100 µM | TGI [22]: > 100 µM | TGI [23]: 31.9 µM | TGI [24]: 24.3 µM | TGI [26]: > 100 µM | TGI [27]: > 100 µM | TGI [28]: 31.7 µM | TGI [29]: 25.7 µM | TGI [53]: > 100 µM | TGI [31]: > 100 µM | TGI [32]: 89.2 µM | TGI [33]: 36.5 µM | TGI [34]: > 100 µM | TGI [35]: 88.2 µM | TGI [36]: > 100 µM | TGI [37]: 29.5 µM | TGI [38]: 86.4 µM | TGI [54]: 30.7 µM | TGI [55]: 47.4 µM | TGI [39]: > 100 µM | TGI [40]: 83.2 µM | TGI [41]: > 100 µM | TGI [42]: > 100 µM | TGI [56]: 94.1 µM | TGI [43]: > 100 µM | TGI [44]: 48.3 µM | TGI [46]: 75.1 µM | TGI [47]: > 100 µM | TGI [48]: 43.8 µM

COc1nc2c(nc(N)n2C2OC(CO)C(O)C(O)C2O)c(=O)[nH]1 (stereo not given)
TGI [49]: > 100 µM | TGI [2]: > 100 µM | TGI [3]: > 100 µM | TGI [4]: > 100 µM | TGI [5]: > 100 µM | TGI [6]: > 100 µM | TGI [7]: > 100 µM | TGI [8]: > 100 µM | TGI [9]: > 100 µM | TGI [10]: > 100 µM | TGI [12]: > 100 µM | TGI [50]: > 100 µM | TGI [51]: > 100 µM | TGI [13]: > 100 µM | TGI [14]: > 100 µM | TGI [15]: > 100 µM | TGI [58]: > 100 µM | TGI [52]: > 100 µM | TGI [17]: > 100 µM | TGI [19]: > 100 µM | TGI [21]: > 100 µM | TGI [22]: > 100 µM | TGI [23]: > 100 µM | TGI [24]: > 100 µM | TGI [25]: > 100 µM | TGI [26]: > 100 µM | TGI [28]: > 100 µM | TGI [29]: > 100 µM | TGI [53]: > 100 µM | TGI [30]: > 100 µM | TGI [31]: > 100 µM | TGI [32]: > 100 µM | TGI [33]: > 100 µM | TGI [34]: > 100 µM | TGI [35]: > 100 µM | TGI [36]: > 100 µM | TGI [37]: > 100 µM | TGI [38]: > 100 µM | TGI [54]: > 100 µM | TGI [55]: > 100 µM | TGI [39]: > 100 µM | TGI [40]: > 100 µM | TGI [41]: > 100 µM | TGI [42]: > 100 µM | TGI [56]: > 100 µM | TGI [43]: > 100 µM | TGI [44]: > 100 µM | TGI [45]: > 100 µM | TGI [46]: > 100 µM | TGI [47]: > 100 µM | TGI [48]: > 100 µM

C/C(=N\OCC(O)CNC(C)C)c1ccc2c(c1)NC(=O)CS2 (stereo not given)
TGI [49]: > 100 µM | TGI [2]: > 100 µM | TGI [3]: > 100 µM | TGI [4]: > 100 µM | TGI [57]: > 100 µM | TGI [5]: > 100 µM | TGI [6]: > 100 µM | TGI [7]: > 100 µM | TGI [8]: > 100 µM | TGI [9]: > 100 µM | TGI [10]: > 100 µM | TGI [11]: > 100 µM | TGI [12]: > 100 µM | TGI [50]: > 100 µM | TGI [51]: > 100 µM | TGI [13]: > 100 µM | TGI [14]: > 100 µM | TGI [15]: > 100 µM | TGI [16]: > 100 µM | TGI [58]: > 100 µM | TGI [17]: > 100 µM | TGI [19]: > 100 µM | TGI [20]: > 100 µM | TGI [21]: > 100 µM | TGI [22]: > 100 µM | TGI [23]: > 100 µM | TGI [24]: > 100 µM | TGI [26]: > 100 µM | TGI [27]: > 100 µM | TGI [28]: > 100 µM | TGI [29]: > 100 µM | TGI [53]: > 100 µM | TGI [30]: > 100 µM | TGI [31]: > 100 µM | TGI [32]: > 100 µM | TGI [33]: > 100 µM | TGI [34]: > 100 µM | TGI [35]: > 100 µM | TGI [36]: > 100 µM | TGI [38]: > 100 µM | TGI [54]: > 100 µM | TGI [55]: > 100 µM | TGI [39]: > 100 µM | TGI [40]: > 100 µM | TGI [41]: > 100 µM | TGI [42]: > 100 µM | TGI [56]: > 100 µM | TGI [43]: > 100 µM | TGI [44]: > 100 µM | TGI [45]: > 100 µM | TGI [46]: > 100 µM | TGI [48]: > 100 µM
